{"source": "paper PMC11729550", "about": "“Discovery of indole analogue Tc3 as a potent pyroptosis inducer and identification of its combination strategy against hepatic carcinoma” (Theranostics, 2025);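 for fold increase in cellular potency: HepG2 cells exposed to a drug concentration series for 3 days, then counted with a hemocytometer, inhibition relative to untreated control cell number, IC50 obtained by curve fitting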", "key": {"HepG2 cells [1]": {"tested_on": "HepG2 cells", "test": "RNA sequencing analysis", "format": "cell-based, human", "conditions": "HepG2, 4 μM, 24h, versus DMSO", "procedure": "HepG2 cells were treated with dimethyl sulfoxide (DMSO) or Tc3 (4 μM) for 24h. And the total RNA was isolated using TRIzol (Solarbio, R1100). Next, the samples were processed and the RNA libraries were constructed by APTBIO company (Shanghai, China). Paired-end reads were aligned to a reference genome index which created using HISAT2, with read assignments to each gene quantified with feature counts. Gene expression was quantified using Transcripts Per Million (TPM). We identified Differentially Expressed Genes (DEGs) using the DESeq2 package in R, defining DEGs as those with an absolute log2 fold change greater than 1 and an adjusted p-value less than 0.05. We performed Gene Ontology (GO) and KEGG pathway enrichment analyses using the \"cluster Profiler\" package in R. GO terms and KEGG pathways with an adjusted P-value less than 0.05 were statistically significant. Our results were visualized using the ggplot2 and fact extra packages in R."}, "Balb/c mice": {"tested_on": "Balb/c mice", "test": "Subchronic toxicity test", "format": "in vivo", "procedure": "And the organ tissues of mice were collected for further H&E staining.\nThe formalin‐fixed and paraffin‐embedded tissues were cut into 5 μm sections. The sections were firstly soaked in xylene for removing paraffin and soaked in alcohol at decreasing concentration for tapping water. In the H&E staining assay, the sections were stained in Harris’s hematoxylin reagent and eosin reagent in turn. In the IHC staining, the sections were conducted antigen retrieval process and blocked with normal goat serum. Next, sections were incubated with the primary antibodies overnight and incubated with HRP-conjugated secondary antibodies. The tissue images were captured by a microscope."}, "pLKO.1 HepG2 cells": {"tested_on": "pLKO.1 HepG2 cells", "test": "Dose-response growth inhibition, control knockdown cells", "format": "cell-based", "conditions": "Homo sapiens", "procedure": "The cells were counted with hemocytometer.\nBriefly, the pLKO.1 or shRNA plasmids with psPAX2 and PMD2.G were transfected into HEK-293T cells via DNA transfection reagent (SignaGen®Laboratories, SL100688). And the cell supernatant contained Lenti-virus was collected after 24 hours. The Lenti-virus of shRNAs were used to infect the hepatic carcinoma cells and the stable-transfection cell lines were screened by puromycin (1 μg/mL) (Solarbio, P8230)."}, "PRDX1": {"tested_on": "PRDX1", "test": "Western blot of PRDX1", "format": "cell-based, human", "conditions": "hepatic carcinoma cells", "procedure": "The whole-cell protein was extracted by RIPA lysis buffer contained with protease and phosphatase inhibitor cocktail (MCE, HY-K0010) from cells treated by indole analogues. Proteins were separated by sodium dodecyl sulfate-polyacrylamide gel electrophoresis (SDS-PAGE) gel, and then blotted onto polyvinylidene difluoride membrane (Millipore, IPVH00010). The membranes were incubated with the primary antibodies and the following horseradish peroxidase-conjugated (HRP) secondary antibodies. Next, membranes were washed and developed by ECL regent (Millipore, WBKLS0500)."}, "hepatocarcinoma PDXs": {"tested_on": "hepatocarcinoma PDXs", "test": "Hepatocarcinoma PDXs treatment", "format": "in vivo, Balb/c nude mice", "conditions": "20 mg/kg and 40 mg/kg i.p. ten times, day 20", "excerpt": "(§1) Balb/c nude mice (female, 6-week-old) were subcutaneously injected with 2 × 10^6 HepG2 cells on the left and right flanks to construct cell-derived xenografts (CDXs). The patient-derived xenografts (PDXs) samples were gifts from Dr Changliang Shan of Nankai University. C57 BL/6N mice (female, 5-week-old) were subcutaneously injected with 2 × 10^6 Hepa1-6 cells mixed with matrigel (ABW, 0827265) on the left and right flanks. The mice were inoculated with hepatic carcinoma CDXs or PDXs for at least four days, and treated (i.p.) by vehicle and Tc3. […] Tumor volume = 4π/3 × (Length/2) × (Width/2)^2. All animal experiments were carried out in accordance with the recommendations of Requirements of the Ethical Review System of Biomedical Research Involving Human by National Health and Family Planning Commission of China and Nankai University Ethics Committee with written informed consent complying with the Declaration of Helsinki (IAEC ID: 2023-STDWLL-000249)."}, "Hepa1-6 CDXs": {"tested_on": "Hepa1-6 CDXs", "test": "Anti-PD-1 antibody synergistic effect in vivo", "conditions": "C57 BL/6N mice", "excerpt": "as §1\nThe CDI value of tumor weight was calculated using formula mentioned before."}, "[2]": {"tested_on": "HepG2, SK-Hep1, and PLC-PRF5 cells", "test": "Cell proliferation assays (growth curve, colony formation)", "format": "cell-based, human", "conditions": "0-4 μM", "procedure": "For colony formation, hepatic carcinoma cells were seeded in 6-well plates and treated with Tc3 for almost 10 days, and the cell colonies were photographed for statistical analysis."}, "[3]": {"test": "Hydrolytic stability in phosphate buffer (HPLC)", "format": "physicochemical", "conditions": "phosphate buffer of PH 7.4 over 150 minutes", "procedure": "The stability of Tc3 was evaluated by an UltiMate 3000 Dual-Gradient HPLC system (Sunnyvale, CA, USA). The samples of solution were chromatographed on ZORBAX Eclipse XDB-C18 column(5 µm, 4.6 × 150 mm, Agela Technologies), using an eluent composed of: water (95%) and acetonitrile (5%) at a flow rate of 1.0 mL/min. […] The hydrolysis of Tc3 was carried out in a phosphate buffer of PH 7.4 (50 ug/ml, initial concentration of 5 mM in methanol) over 150 minutes."}, "hepatic carcinoma cells": {"tested_on": "hepatic carcinoma cells", "test": "Cell migration assay (wound scratch, transwell)", "format": "cell-based, human", "conditions": "HepG2 and SK-Hep1, 0-4 μM", "procedure": "For transwell assay, the hepatic carcinoma cells were seeded in wells and put wells into 24-well plates pre-loaded DMEM medium supplemented with 20% FBS. The wells were added only DMEM medium with Tc3. The cells migrated through the membrane of wells in two days. Next, the wells were fixed by paraformaldehyde, stained by crystal violet and photographed for statistical analysis. For cell scratch assay, the hepatic carcinoma cells were seeded in 6-well plates and treated with Tc3. The scratch lines were obtained before the cell fusion reached almost 100%, and the cells were photographed at time gradient points for statistical analysis."}, "HepG2 cells [4]": {"tested_on": "HepG2 cells", "test": "Anti-tumor activity assay (IC50 value), cells counted after three days", "description": "For half maximal inhibitory concentrations (IC50) analysis, the hepatic carcinoma cells (HepG2, SK-Hep1 and PLC-PRF5) were seeded in 24-well plates respectively, then treated with drugs at concentration gradient for three days. The cells were counted with hemocytometer. […] A is the cell quantity of the control group and B is the cell quantity of the drug treated group. The cell inhibition rate was transformed using its logarithm. And the drug IC50 value were calculated by Graphpad Prsim 9 software with curve fitting of the drug concentration and log (cell inhibition rate)."}}}
{"smiles": "CC(C)[C@H](N)C(=O)NCCCn1cc(/C=C2\\S/C(=N\\c3ccc(N4CCOCC4)cc3)N(Cc3ccc(F)cc3)C2=O)c2ccccc21", "note": "[Tc3]", "values": [{"measurement": "Number of down-regulated gene", "setting": "HepG2 cells [1]", "value": 38}, {"measurement": "Number of up-regulated gene", "setting": "HepG2 cells [1]", "value": 182}, {"measurement": "number of DEGs", "setting": "HepG2 cells [1]", "value": 220}, {"measurement": "glomerular structure of the kidney (HE staining)", "setting": "Balb/c mice; 60 mg/kg", "value": "slightly damaged"}, {"measurement": "jejunum crypts and villi (HE staining)", "setting": "Balb/c mice; 60 mg/kg", "value": "severely disrupted"}, {"measurement": "weight and health state", "setting": "Balb/c mice; 60 mg/kg i.p.", "value": "lower weight and worse health state"}, {"measurement": "lung findings (HE staining)", "setting": "Balb/c mice; i.p. every two days, day 14", "value": "alveolar wall thickening and increased numbers of lymphocytes"}, {"measurement": "toxicity to the heart, liver, spleen and stomach (HE staining)", "setting": "Balb/c mice; i.p. every two days, day 14", "value": "no significant toxicity"}, {"measurement": "IC50", "setting": "pLKO.1 HepG2 cells", "value": 2.22, "unit": "µM"}, {"measurement": "expression of PRDX1", "setting": "PRDX1", "value": "obviously reduced"}, {"measurement": "tumor size and weight of PDXs", "setting": "hepatocarcinoma PDXs", "value": "significantly reduced the tumor size and weight"}, {"measurement": "damage to liver, spleen, kidney and small intestine (pathology)", "setting": "Hepa1-6 CDXs; 10 mg/kg", "value": "did not cause significant damage"}, {"measurement": "tumor growth of Hepa1-6 CDXs compared to control groups", "setting": "Hepa1-6 CDXs; i.p., Tc3 10 mg/kg, anti-PD-1 10 mg/kg", "value": "significantly inhibited tumor growth"}, {"measurement": "tumor proliferation (growth curve, colony formation)", "setting": "[2]", "value": "significantly inhibited tumor proliferation"}, {"measurement": "stability to hydrolysis", "setting": "[3]", "value": "no changes"}, {"measurement": "cell migration rates (wound scratch, transwell)", "setting": "hepatic carcinoma cells", "value": "reduced cell migration rates"}, {"measurement": "fold increase in cellular potency", "setting": "HepG2 cells [4]; HepG2, compared to T1", "value": "~12", "unit": "fold"}, {"measurement": "IC50", "setting": "HepG2 cells [4]; Homo sapiens, HepG2, 72 h, read-out: IC50 HepG2", "value": 1.37, "unit": "µM"}]}
